# Measurements as given in the supplement of paper PMC6411743.
# Columns and labels:
# adenosine triphosphate = compound: Nc1ncnc2c1ncn2[C@@H]1O[C@H](COP(=O)(O)OP(=O)(O)OP(=O)(O)O)[C@@H](O)[C@H]1O [adenosine triphosphate]; assay: pEC50 of ATP-induced change in protein thermal stability (2D-TPP)
# Outline: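 Crude Jurkat lysate was exposed to five concentrations, vehicle among them, for 10 min at room temperature, then heated for 3 min at 12 temperatures between 42 and 63.9 °C and treated with NP40 and benzonase for 60 min at 4 °C. Soluble protein remaining after ultracentrifugation was measured by TMT LC-MS/MS, and fold changes relative to vehicle at each temperature were median-normalised. pEC50 values come from dose-response fits made per replicate across adjacent temperature pairs, with hits called under permutation-based false discovery rate control. Three independent experiments were run.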
# guanosine triphosphate = compound: Nc1nc2c(ncn2[C@@H]2O[C@H](COP(=O)(O)OP(=O)(O)OP(=O)(O)O)[C@@H](O)[C@H]2O)c(=O)[nH]1 [guanosine triphosphate]; assay: pEC50 of GTP-induced change in protein thermal stability (2D-TPP)
# Description: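 2D thermal proteome profiling in Jurkat crude lysate. Lysate was treated 10 min at room temperature with Na-GTP (0, 0.001, 0.01, 0.1, 0.5 mM), heated to 12 temperatures (42-63.9 °C) for 3 min, and soluble protein was quantified by TMT10 LC-MS/MS. pEC50 is the median over replicates of dose-response fits (FDR-controlled hits).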
# 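Wherever pEC50 of ATP-induced change in protein thermal stability (2D-TPP) is given: lysate dosed with Na-ATP at 0 0.005 0.05 0.5 and 2 mM.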
# UniProt P61244, sequence (P61244 whole entry): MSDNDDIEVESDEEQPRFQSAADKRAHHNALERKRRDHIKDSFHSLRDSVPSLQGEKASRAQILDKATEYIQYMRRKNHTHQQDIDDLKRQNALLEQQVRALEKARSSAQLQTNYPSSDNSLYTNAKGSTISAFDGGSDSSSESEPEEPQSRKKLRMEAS
# UniProt Q9NPF4, sequence (Q9NPF4 whole entry): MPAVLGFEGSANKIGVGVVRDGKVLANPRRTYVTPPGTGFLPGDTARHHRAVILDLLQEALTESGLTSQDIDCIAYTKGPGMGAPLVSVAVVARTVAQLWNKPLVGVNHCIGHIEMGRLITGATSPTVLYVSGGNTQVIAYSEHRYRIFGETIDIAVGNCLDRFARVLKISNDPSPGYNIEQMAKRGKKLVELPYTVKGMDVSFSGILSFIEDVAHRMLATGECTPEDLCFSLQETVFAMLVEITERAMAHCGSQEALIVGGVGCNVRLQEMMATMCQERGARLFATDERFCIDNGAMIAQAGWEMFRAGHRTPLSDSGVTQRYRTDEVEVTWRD
# UniProt Q9UI10, sequence (Q9UI10 whole entry): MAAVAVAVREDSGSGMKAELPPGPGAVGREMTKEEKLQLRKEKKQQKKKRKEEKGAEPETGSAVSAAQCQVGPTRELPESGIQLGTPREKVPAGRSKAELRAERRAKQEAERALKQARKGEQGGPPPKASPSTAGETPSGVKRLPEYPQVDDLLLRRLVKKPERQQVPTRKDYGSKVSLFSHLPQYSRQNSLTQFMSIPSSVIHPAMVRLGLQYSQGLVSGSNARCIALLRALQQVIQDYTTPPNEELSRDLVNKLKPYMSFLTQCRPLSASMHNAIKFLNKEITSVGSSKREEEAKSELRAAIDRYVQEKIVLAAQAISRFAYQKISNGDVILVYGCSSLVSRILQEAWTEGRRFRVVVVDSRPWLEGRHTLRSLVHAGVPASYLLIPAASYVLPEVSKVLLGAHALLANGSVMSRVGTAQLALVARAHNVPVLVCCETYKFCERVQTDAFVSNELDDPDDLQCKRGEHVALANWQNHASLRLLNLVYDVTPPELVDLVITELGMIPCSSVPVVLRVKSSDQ
# UniProt Q96I99, sequence (Q96I99 whole entry): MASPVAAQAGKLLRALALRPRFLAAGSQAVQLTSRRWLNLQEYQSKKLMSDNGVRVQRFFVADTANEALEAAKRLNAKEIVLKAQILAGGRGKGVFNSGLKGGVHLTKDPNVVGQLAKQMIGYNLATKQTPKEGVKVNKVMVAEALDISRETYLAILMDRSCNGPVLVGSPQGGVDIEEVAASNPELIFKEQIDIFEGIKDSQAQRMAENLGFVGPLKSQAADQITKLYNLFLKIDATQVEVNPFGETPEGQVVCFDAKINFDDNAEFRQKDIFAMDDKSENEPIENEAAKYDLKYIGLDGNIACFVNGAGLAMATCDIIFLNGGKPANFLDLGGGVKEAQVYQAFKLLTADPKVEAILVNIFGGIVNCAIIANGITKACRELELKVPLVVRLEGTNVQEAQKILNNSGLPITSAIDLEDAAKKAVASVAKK
# UniProt Q9UL25, sequence (Q9UL25 whole entry): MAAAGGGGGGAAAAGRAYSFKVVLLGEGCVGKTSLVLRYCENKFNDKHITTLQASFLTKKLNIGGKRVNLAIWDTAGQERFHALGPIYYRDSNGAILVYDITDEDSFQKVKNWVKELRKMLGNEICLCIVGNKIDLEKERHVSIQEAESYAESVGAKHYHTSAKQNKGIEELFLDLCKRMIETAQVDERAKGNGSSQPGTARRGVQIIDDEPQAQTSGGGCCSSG
# UniProt P61019, sequence (P61019 whole entry, looked up): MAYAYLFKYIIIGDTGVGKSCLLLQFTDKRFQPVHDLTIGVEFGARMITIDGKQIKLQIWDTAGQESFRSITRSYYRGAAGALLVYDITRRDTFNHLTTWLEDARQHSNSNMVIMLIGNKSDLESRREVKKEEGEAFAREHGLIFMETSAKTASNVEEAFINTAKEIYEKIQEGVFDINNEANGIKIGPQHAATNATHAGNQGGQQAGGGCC
# UniProt Q13418, sequence (Q13418 whole entry): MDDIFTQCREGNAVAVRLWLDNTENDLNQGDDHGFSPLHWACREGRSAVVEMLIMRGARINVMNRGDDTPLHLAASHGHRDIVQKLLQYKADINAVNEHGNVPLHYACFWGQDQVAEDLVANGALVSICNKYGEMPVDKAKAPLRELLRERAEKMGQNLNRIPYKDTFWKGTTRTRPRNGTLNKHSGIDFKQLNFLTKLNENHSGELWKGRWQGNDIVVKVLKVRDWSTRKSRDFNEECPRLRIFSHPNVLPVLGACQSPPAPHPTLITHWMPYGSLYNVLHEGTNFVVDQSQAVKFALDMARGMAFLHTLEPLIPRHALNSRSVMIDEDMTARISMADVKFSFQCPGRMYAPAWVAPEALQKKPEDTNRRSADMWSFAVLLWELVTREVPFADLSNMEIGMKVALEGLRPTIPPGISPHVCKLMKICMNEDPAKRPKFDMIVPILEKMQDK
# UniProt Q14088, sequence (Q14088 whole entry): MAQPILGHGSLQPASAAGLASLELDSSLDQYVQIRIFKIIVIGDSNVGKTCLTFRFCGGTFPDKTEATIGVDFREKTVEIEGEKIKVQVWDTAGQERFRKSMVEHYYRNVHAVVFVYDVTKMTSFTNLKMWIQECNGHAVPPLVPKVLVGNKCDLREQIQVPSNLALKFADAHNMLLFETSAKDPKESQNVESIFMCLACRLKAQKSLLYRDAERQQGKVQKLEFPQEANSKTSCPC
# UniProt P36776, sequence (P36776 whole entry): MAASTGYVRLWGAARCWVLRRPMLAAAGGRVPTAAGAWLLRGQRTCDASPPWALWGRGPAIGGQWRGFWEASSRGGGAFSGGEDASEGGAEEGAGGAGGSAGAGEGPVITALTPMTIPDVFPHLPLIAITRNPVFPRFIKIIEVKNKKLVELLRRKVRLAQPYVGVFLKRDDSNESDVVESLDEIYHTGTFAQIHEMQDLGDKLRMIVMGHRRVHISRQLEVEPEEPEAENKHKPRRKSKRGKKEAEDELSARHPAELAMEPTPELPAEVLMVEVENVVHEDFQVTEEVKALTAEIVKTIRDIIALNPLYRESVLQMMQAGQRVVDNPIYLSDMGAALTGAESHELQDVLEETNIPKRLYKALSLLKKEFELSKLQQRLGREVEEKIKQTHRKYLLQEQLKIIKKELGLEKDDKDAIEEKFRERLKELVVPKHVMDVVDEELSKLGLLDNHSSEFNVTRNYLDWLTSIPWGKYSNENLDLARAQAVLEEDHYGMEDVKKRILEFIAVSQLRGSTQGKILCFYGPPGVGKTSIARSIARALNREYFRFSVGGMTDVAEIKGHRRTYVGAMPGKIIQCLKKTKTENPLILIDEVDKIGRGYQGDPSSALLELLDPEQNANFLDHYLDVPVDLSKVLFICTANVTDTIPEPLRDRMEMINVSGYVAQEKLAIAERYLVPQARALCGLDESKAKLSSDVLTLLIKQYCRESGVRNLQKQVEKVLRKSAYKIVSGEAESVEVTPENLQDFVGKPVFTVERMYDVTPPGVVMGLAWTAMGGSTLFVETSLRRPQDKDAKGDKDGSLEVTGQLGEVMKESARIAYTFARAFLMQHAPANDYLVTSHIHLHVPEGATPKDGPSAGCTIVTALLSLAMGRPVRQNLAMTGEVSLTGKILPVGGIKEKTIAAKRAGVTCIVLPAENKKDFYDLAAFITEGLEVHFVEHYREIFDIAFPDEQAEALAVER
# UniProt Q14566, sequence (Q14566 whole entry): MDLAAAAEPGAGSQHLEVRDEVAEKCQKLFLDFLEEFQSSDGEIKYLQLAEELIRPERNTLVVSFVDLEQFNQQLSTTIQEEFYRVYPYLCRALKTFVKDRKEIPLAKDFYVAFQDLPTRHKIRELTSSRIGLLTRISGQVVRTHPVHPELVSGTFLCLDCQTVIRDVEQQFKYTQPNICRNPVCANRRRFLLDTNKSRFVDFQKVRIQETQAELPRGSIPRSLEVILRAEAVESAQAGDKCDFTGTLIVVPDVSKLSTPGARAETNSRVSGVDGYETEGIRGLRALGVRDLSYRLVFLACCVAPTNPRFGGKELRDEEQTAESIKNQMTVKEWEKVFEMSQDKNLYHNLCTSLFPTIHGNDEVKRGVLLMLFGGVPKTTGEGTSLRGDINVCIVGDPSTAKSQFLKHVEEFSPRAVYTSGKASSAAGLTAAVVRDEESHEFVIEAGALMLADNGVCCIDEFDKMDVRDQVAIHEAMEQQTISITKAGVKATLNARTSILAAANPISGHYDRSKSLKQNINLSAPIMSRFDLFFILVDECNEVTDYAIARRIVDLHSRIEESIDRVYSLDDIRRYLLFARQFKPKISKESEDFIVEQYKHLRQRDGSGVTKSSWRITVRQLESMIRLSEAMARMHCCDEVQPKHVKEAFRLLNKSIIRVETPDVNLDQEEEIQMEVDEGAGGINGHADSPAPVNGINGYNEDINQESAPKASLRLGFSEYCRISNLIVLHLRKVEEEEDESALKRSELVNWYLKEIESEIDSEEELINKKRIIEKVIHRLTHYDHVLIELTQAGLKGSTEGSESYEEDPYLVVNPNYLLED
# UniProt P51570, sequence (P51570 whole entry): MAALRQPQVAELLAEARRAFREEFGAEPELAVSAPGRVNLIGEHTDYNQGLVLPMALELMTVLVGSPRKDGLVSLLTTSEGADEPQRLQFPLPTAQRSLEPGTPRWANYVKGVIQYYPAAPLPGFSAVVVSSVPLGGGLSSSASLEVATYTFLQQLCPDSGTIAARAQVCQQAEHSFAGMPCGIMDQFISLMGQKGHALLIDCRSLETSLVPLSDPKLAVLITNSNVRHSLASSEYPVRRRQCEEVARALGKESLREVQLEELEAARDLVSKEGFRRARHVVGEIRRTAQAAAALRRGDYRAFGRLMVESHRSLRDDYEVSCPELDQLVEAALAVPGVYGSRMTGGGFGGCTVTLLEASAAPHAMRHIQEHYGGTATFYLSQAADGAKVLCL
# UniProt O00746, sequence (O00746 whole entry): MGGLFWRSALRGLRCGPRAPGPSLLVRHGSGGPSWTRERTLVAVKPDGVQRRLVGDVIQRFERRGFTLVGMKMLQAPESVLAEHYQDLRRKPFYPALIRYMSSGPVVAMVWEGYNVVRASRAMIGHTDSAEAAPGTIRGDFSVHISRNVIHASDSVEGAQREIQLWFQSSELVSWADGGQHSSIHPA
pEC50 (adenosine triphosphate),pEC50 (guanosine triphosphate),Target
2.76,3.61,EFTUD2 (effect direction: stabilized) (UniProt Q15029)
3.88,4.34,EHD1 (effect direction: stabilized) (UniProt Q9H4M9)
3.65,3.73,EIF2B4 (effect direction: stabilized) (UniProt Q9UI10)
3.77,4.12,EIF2B5 (effect direction: stabilized) (UniProt Q13144)
3.36,3.59,FAR1 (effect direction: stabilized) (UniProt Q8WVX9)
4.02,4.06,GALK1 (effect direction: stabilized) (UniProt P51570)
4.24,3.81,GIMAP6 (effect direction: stabilized) (UniProt Q6P9H5)
2.72,4.02,GMDS (effect direction: stabilized) (UniProt O60547)
3.08,3.36,GMPPA (effect direction: stabilized) (UniProt Q96IJ6)
3.2,3.82,GMPPB (effect direction: stabilized) (UniProt Q9Y5P6)
2.85,4.07,GMPS (effect direction: stabilized) (UniProt P49915)
2.85,4.51,GNAI2 (effect direction: stabilized) (UniProt P04899)
< 2.7,4.36,GNAI3 (effect direction: stabilized) (UniProt P08754)
2.8,4.04,GNL1 (effect direction: stabilized) (UniProt P36915)
< 2.7,4.01,GSPT1 (effect direction: stabilized) (UniProt P15170)
3.74,4.67,GTPBP3 (effect direction: stabilized) (UniProt Q969Y2)
3.78,3.91,GUK1 (effect direction: stabilized) (UniProt Q16774)
4.13,3.55,HARS2 (effect direction: stabilized) (UniProt P49590)
3.97,3.69,HARS (effect direction: stabilized) (UniProt P12081)
3.98,3.79,HMGCS1 (effect direction: stabilized) (UniProt Q01581)
3.54,3.83,HSPA4L (effect direction: stabilized) (UniProt O95757)
4.18,3.71,IARS2 (effect direction: stabilized) (UniProt Q9NSE4)
3.37,4.17,ILK (effect direction: stabilized) (UniProt Q13418)
3.26,3.62,IMPDH2 (effect direction: stabilized) (UniProt P12268)

pEC50 (adenosine triphosphate),pEC50 (guanosine triphosphate),Target
3.44,3.57,IPO7 (effect direction: stabilized) (UniProt O95373)
4.21,4.29,KIF2A (effect direction: stabilized) (UniProt O00139)
4.03,3.91,LONP1 (effect direction: stabilized) (UniProt P36776)
4.13,4.65,MAX (effect direction: destabilized) (UniProt P61244)
3.58,4.06,MCM2 (effect direction: stabilized) (UniProt P49736)
3.88,3.86,MCM4 (effect direction: stabilized) (UniProt P33991)
4.05,3.98,MCM6 (effect direction: stabilized) (UniProt Q14566)
3.42,4.14,MCM7 (effect direction: stabilized) (UniProt P33993)
3.77,4.04,MFN2 (effect direction: stabilized) (UniProt O95140)
3.71,3.95,MTHFD1 (effect direction: stabilized) (UniProt P11586)
3.33,3.75,MTHFS (effect direction: stabilized) (UniProt P49914)
3.91,3.81,NDUFA10 (effect direction: stabilized) (UniProt O95299)
4.02,4.11,NEK7 (effect direction: stabilized) (UniProt Q8TDX7)
4.29,4.44,NME4 (effect direction: stabilized) (UniProt O00746)
< 2.7,3.87,NSUN2 (effect direction: stabilized) (UniProt Q08J23)
3.41,4.71,NUBP2 (effect direction: stabilized) (UniProt Q9Y5Y2)
3.81,3.87,OLA1 (effect direction: stabilized) (UniProt Q9NTK5)
3.8,3.88,OSGEP (effect direction: stabilized) (UniProt Q9NPF4)
4.07,3.44,PAK4 (effect direction: stabilized) (UniProt O96013)
3.98,3.72,PEX1 (effect direction: stabilized) (UniProt O43933)
3.4,3.54,PFKL (effect direction: stabilized) (UniProt P17858)
3.85,3.72,PRKAR1A (effect direction: stabilized) (UniProt P10644)
3.44,3.86,PRKCB (effect direction: stabilized) (UniProt P05771)
4.19,4.08,PRKCQ (effect direction: stabilized) (UniProt Q04759)

pEC50 (adenosine triphosphate),pEC50 (guanosine triphosphate),Target
3.56,4.39,RAB2A (effect direction: stabilized) (UniProt P61019)
3.45,4.52,RAB2B (effect direction: stabilized) (UniProt Q8WUD1)
3.45,4.52,RAB4A (effect direction: stabilized) (UniProt P20338)
3.79,5,RAB4B (effect direction: stabilized) (UniProt P61018)
4.22,4.49,RAB5C (effect direction: stabilized) (UniProt P51148)
4.15,4.51,RAB8A (effect direction: stabilized) (UniProt P61006)
3.93,4.27,RAB8B (effect direction: stabilized) (UniProt Q92930)
3.75,4.53,RAB21 (effect direction: stabilized) (UniProt Q9UL25)
3.39,3.89,RAB33A (effect direction: stabilized) (UniProt Q14088)
3.52,4.03,RAB39B (effect direction: stabilized) (UniProt Q96DA2)
3.55,4.47,RAB43 (effect direction: stabilized) (UniProt Q86YS6)
3.4,3.95,RABL3 (effect direction: stabilized) (UniProt Q5HYI8)
3.37,3.49,RAD50 (effect direction: stabilized) (UniProt Q92878)
3.28,4.45,RHEB (effect direction: stabilized) (UniProt Q15382)
4.15,4.45,RHOA (effect direction: stabilized) (UniProt P61586)
4.34,3.67,RUVBL1 (effect direction: stabilized) (UniProt Q9Y265)
4.33,3.77,RUVBL2 (effect direction: stabilized) (UniProt Q9Y230)
3.06,3.71,SET (effect direction: stabilized) (UniProt Q01105)
3.2,3.78,SUCLA2 (effect direction: stabilized) (UniProt Q9P2R7)
3.48,3.83,SUCLG1 (effect direction: stabilized) (UniProt P53597)
3.43,3.5,SUCLG2 (effect direction: stabilized) (UniProt Q96I99)
2.92,3.7,TBCD (effect direction: stabilized) (UniProt Q9BTW9)
